{
  "source": "ChEMBL document CHEMBL5625231",
  "about": "“Targeting autophagy with small-molecule activators for potential therapeutic purposes” (Eur J Med Chem, 2023)",
  "key": {"Forkhead box protein O1": {"biological_target": "Forkhead box protein O1 (Homo sapiens, UniProt Q12778)", "sequence (Q12778 whole entry)": "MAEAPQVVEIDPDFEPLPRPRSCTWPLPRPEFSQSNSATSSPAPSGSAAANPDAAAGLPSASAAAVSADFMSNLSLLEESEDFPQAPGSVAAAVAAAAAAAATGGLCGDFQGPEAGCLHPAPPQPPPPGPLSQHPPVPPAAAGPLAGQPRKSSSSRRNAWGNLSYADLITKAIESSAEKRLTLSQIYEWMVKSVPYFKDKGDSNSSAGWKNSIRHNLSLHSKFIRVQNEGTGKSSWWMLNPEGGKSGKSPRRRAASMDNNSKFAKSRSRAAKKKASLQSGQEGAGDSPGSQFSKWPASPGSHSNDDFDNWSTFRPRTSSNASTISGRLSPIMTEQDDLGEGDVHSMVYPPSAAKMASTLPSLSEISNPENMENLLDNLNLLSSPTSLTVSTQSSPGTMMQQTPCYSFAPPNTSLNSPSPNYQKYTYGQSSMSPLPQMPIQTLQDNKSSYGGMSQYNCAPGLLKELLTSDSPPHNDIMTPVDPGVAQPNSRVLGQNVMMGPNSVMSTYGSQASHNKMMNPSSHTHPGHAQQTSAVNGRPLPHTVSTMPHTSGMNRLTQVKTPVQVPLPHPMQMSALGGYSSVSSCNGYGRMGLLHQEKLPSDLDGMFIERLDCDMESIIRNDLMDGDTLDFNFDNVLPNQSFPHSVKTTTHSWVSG", "experiment": "Activation of FoxO1(unknown origin)"}, "[1]": {"experiment": "Activation of AMPK in rat hepatocyte using SAMS as substrate incubated for 30 mins in presence of [gamma-33P]ATP", "type": "cell-based"}, "[2]": {"biological_target": "T1, Serine/threonine-protein kinase ULK1 (Homo sapiens) (UniProt O75385)", "T1 sequence (whole entry)": "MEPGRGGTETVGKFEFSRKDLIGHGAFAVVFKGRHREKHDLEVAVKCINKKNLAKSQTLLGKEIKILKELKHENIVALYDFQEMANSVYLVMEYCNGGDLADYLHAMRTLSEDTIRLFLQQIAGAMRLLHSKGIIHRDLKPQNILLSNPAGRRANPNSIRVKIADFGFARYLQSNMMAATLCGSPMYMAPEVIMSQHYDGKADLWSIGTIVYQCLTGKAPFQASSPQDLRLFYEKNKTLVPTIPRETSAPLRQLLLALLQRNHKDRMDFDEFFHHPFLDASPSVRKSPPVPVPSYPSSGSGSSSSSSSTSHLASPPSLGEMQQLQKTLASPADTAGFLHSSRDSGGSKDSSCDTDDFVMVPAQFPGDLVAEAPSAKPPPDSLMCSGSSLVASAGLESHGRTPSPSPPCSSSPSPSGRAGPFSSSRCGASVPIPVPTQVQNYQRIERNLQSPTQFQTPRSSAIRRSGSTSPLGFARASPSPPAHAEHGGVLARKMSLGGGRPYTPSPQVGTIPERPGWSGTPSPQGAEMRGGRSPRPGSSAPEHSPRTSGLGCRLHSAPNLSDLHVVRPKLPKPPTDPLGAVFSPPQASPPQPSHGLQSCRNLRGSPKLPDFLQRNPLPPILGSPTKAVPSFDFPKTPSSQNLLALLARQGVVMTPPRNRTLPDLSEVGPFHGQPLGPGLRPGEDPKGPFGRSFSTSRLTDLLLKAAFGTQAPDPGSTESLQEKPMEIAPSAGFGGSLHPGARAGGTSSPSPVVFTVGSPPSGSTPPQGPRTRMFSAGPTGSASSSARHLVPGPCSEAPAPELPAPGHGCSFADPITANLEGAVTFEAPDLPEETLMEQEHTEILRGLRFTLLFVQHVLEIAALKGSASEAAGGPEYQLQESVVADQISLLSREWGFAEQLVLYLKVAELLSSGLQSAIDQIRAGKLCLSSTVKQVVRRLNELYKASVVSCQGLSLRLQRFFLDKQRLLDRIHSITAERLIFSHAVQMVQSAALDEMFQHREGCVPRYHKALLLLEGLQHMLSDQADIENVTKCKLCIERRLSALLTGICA", "experiment": "Agonist activity at ULK1 (unknown origin) at 100 nM incubated for 60 mins in presence of ATP by ADP-glo assay relative to control", "settings": "filed as agonist"}, "MDA-MB-231": {"tested_on": "MDA-MB-231", "experiment": "Antiproliferative activity against human MDA-MB-231 cells assessed reduction in cell viability incubated for 24 hrs by MTT assay", "type": "functional, cell-based", "settings": "MDA-MB-231, 24 h"}, "Transcription factor EB": {"biological_target": "T2, Transcription factor EB (Homo sapiens, UniProt P19484)", "T2 sequence (P19484 whole entry)": "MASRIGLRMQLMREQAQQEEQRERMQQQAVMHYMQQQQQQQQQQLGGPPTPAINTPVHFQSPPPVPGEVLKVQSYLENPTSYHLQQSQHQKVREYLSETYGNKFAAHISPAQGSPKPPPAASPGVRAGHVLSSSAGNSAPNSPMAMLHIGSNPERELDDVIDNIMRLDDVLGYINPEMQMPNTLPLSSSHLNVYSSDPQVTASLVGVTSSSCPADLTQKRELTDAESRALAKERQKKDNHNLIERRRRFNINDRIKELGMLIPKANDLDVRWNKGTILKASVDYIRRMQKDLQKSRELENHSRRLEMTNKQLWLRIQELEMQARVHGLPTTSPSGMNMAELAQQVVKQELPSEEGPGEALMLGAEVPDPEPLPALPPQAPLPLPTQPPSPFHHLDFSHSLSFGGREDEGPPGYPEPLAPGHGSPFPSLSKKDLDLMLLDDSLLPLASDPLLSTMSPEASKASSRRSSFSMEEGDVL", "experiment": "Binding affinity to full length N-terminal his6-tagged human TFEB expressed in Escherichia coli by isothermal titration calorimetry analysis"}},
  "data": [
    {"smiles": "Cc1[nH]c2ccccc2c1CCNCc1ccc(/C=C/C(=O)NO)cc1", "note": "[PANOBINOSTAT]", "values": [
      {"measurement": "EC50", "setting": "Forkhead box protein O1", "value": 420, "unit": "nM"}
    ]},
    {"smiles": "N#Cc1c(O)c2c(-c3ccc(-c4ccccc4O)cc3)csc2[nH]c1=O", "values": [
      {"measurement": "EC50", "setting": "[1]", "value": 800, "unit": "nM"}
    ]},
    {"smiles": "CC(C)(C)OC(=O)N1CCN(CC(OCc2ccc3ccccc3c2)c2ccc(Cl)cc2Cl)CC1", "note": "(stereo not drawn)", "values": [
      {"measurement": "Activity", "setting": "[2]", "value": 154, "unit": "%"},
      {"measurement": "IC50", "setting": "MDA-MB-231", "value": 20900, "unit": "nM"}
    ]},
    {"smiles": "N#Cc1c(O)c2c(-c3ccccc3)csc2[nH]c1=O", "values": [
      {"measurement": "EC50", "setting": "[1]", "value": 38000, "unit": "nM"}
    ]},
    {"smiles": "COc1ccccc1/C=C/C(=O)/C=C/c1ccccc1OC", "values": [
      {"measurement": "EC50", "setting": "Transcription factor EB", "value": 2170, "unit": "nM"}
    ]},
    {"smiles": "COC(=O)Nc1nc2cc(C(=O)c3ccc(F)cc3)ccc2[nH]1", "note": "[FLUBENDAZOLE]", "values": [
      {"measurement": "IC50", "setting": "MDA-MB-231", "value": 750, "unit": "nM"}
    ]},
    {"smiles": "CC(C)CN(CC(=O)N1CCN(CC(OCc2ccc3ccccc3c2)c2ccc(Cl)cc2Cl)CC1)CC(C)C", "note": "(stereo not drawn)", "values": [
      {"measurement": "Activity", "setting": "[2]", "value": 196, "unit": "%"}
    ]}
  ]
}
